Assay results reported in patent US12043602B2, “Fendiline derivatives” (The Board of Regents of the University of Texas System, priority 2019, dated 2024).
Values belong to the molecule of their own block, whether it stands above or below them.

Columns and labels:
mGFP-K-RASG12V [1] = biological target: T1, mGFP-K-RASG12V (Homo sapiens (Human), UniProt P01116, G12V); assay: K-Ras mislocalization assay (confocal microscopy, Manders coefficient); assay type: cell-based; set-up: key to Emax: Manders coefficient: fraction of mCherry-CAAX co-localizing with GFP-K-Ras; settings: MDCK cells; for Emax: maximal effect, Manders coefficient
Procedure, shortened: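 MDCK cells stably co-expressing mGFP-K-RASG12V and mCherry-CAAX (endomembrane marker) treated with compound or 0.1% DMSO for 48 h, fixed in 4% paraformaldehyde, imaged by confocal microscopy. Mislocalization quantified as the fraction of mCherry-CAAX co-localizing with mGFP-K-RASG12V (Manders coefficient) after 8-bit thresholding.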

[2] = tested on: BxPC-3 (WT) pancreatic tumor cells; assay: CyQUANT proliferation assay; assay type: cell-based; set-up: key to IC50 proliferation BxPC-3 (WT): NE—Not efficacious
Experimental: (§1) Madine Darby Canine Kidney epithelial cells (MDCK) stably co-expressing mGFP-tagged full length oncogenic mutant K-Ras (GFP—K-RASG12V) or mGFP-LactC2 (peptide probe for phosphatidylserine) and mCherry-tagged to the amino acids 179-189 of H-RasC181S, C184S (mCherry-CAAX, localizes primarily to endomembranes) were grown in DMEM-high glucose/sodium pyruvate/10% FBS. The medium was supplemented with 1× Penicillin/Streptomycin for fluorescence microscopy assays, to avoid any microbial contamination from the test compounds added. KLE and Hec50 cells were maintained in DMEM-F-12 medium supplemented with 10% FBS. Hec-1A and Hec-1B cells were grown in McCoy's 5a medium supplemented with 10% FBS. ESS-1 cells were grown in RPMI 1640 medium supplemented with 20% FBS. MPanc96 cells were grown in DMEM supplemented with 10% FBS, MiaPaCa-2 cells in DMEM supplemented with 10% FBS and 2.5% horse serum and all other cell lines were grown in RPMI 1640 supplemented with 10% FBS. All cancer cell media were supplemented with ×Penicillin/Streptomycin. All cell lines were grown at 37° C. with 5% CO2.
(§2) Cells were seeded in 96-well plates. After 24 h, fresh growth medium supplemented with 0.1% vehicle (DMSO), or various concentrations of drugs was added and cells were grown for 72 h. Cell numbers were quantified using the CyQUANT® Cell Proliferation Assay Kit (Molecular Probes, Life Technologies), according to the manufacturer's protocol. Fluorescence measurement was used as a measure of live cell number.

[3] = tested on: MiaPaCa-2 (Mut) pancreatic tumor cells; assay: CyQUANT proliferation assay; assay type: cell-based; settings: Table 11, pancreatic; read-out: IC50 (μM) MiaPaCa-2 (Mut)
Experimental: as §1, §2

[4] = tested on: MOH (Mut) pancreatic tumor cells; assay: CyQUANT proliferation assay; assay type: cell-based; set-up: key to IC50 proliferation MOH (Mut): NE—Not efficacious
Experimental: as §1, §2

[5] = tested on: MPanc96 (Mut) pancreatic tumor cells; assay: CyQUANT proliferation assay; assay type: cell-based; settings: Table 11, pancreatic; read-out: IC50 (μM) MPanc96 (Mut)
Experimental: as §1, §2

[6] = tested on: NCI H1975 (WT) lung tumor cells; assay: CyQUANT proliferation assay; assay type: cell-based; settings: Table 11, lung
Experimental: as §1, §2

[7] = tested on: NCI H522 (WT) lung tumor cells; assay: CyQUANT proliferation assay; assay type: cell-based; set-up: key to IC50 proliferation NCI H522 (WT): NE—Not efficacious
Experimental: as §1, §2

[8] = tested on: CaCO-2 (WT) colon tumor cells; assay: CyQUANT proliferation assay; assay type: cell-based; settings: Table 11, colon; read-out: IC50 (μM) Caco-2 (WT)
Experimental: as §1, §2

[9] = tested on: Hec1A (Mut) endometrial tumor cells; assay: CyQUANT proliferation assay; assay type: cell-based; settings: Table 11, endometrial; read-out: IC50 (μM) Hec1A (Mut)
Experimental: as §1, §2

[10] = tested on: Hec1B (Mut) endometrial tumor cells; assay: CyQUANT proliferation assay; assay type: cell-based; settings: Table 11, endometrial; read-out: IC50 (μM) Hec1B (Mut)
Experimental: as §1, §2

[11] = tested on: NCI-H1299 (WT) lung tumor cells; assay: CyQUANT proliferation assay; assay type: cell-based; settings: Table 11, lung; read-out: IC50 (μM) NCI H1299 (WT)
Experimental: as §1, §2

[12] = tested on: SK-CO-1 (Mut) colon tumor cells; assay: CyQUANT proliferation assay; assay type: cell-based; settings: Table 11, colon; read-out: IC50 (μM) SK-CO-1 (Mut)
Experimental: as §1, §2

[13] = tested on: NCI-H23 (Mut) lung tumor cells; assay: CyQUANT proliferation assay; assay type: cell-based; set-up: key to IC50 proliferation NCI-H23 (Mut): NE—Not efficacious
Experimental: as §1, §2

[14] = tested on: Ishikawa (WT) endometrial tumor cells; assay: CyQUANT proliferation assay; assay type: cell-based; set-up: key to IC50 proliferation Ishikawa (WT): NE—Not efficacious
Experimental: as §1, §2

mGFP-K-RASG12V [15] = biological target: T1, mGFP-K-RASG12V; settings: versus compound 6; background statement; cited from earlier work
[16] = tested on: mutant KRAS expressing cancer cells; settings: at 30 μM; background statement; cited from earlier work
[17] = tested on: MDCK cells co-expressing GFP-K-RASG12V and mCherry-CAAX; assay: Cytotoxicity in mislocalization screen (death of all cells in well); settings: drug caused death of all cells in well at 30 μM
[18] = tested on: HPAC (Mut) pancreatic tumor cells; assay: CyQUANT proliferation assay; assay type: cell-based; set-up: key to IC50 proliferation HPAC (Mut): NE—Not efficacious; settings: 72 h
Experimental: as §1, §2

[19] = tested on: H1925 (WT) lung tumor cells; assay: CyQUANT proliferation assay; assay type: cell-based; set-up: key: NE—Not efficacious; settings: 72 h
Experimental: as §1, §2

[20] = tested on: KLE (WT) endometrial tumor cells; assay: CyQUANT proliferation assay; assay type: cell-based; set-up: key: NE—Not efficacious; settings: 72 h
Experimental: as §1, §2

[21] = tested on: SW1116 (Mut) colon tumor cells; assay: CyQUANT proliferation assay; assay type: cell-based; set-up: key: NE—Not efficacious; settings: 72 h
Experimental: as §1, §2

Structure (SMILES): COc1ccc([C@@H](C)N(CC=C(c2ccccc2)c2ccccc2)CC=C(c2ccccc2)c2ccccc2)cc1 [Compound 7, reference compound]
IC50 (mGFP-K-RASG12V [1]; 48 h treatment, read-out: IC50 (μM), KRASG12V mislocalization): 0.5 µM
Emax (mGFP-K-RASG12V [1]; 48 h): 0.74 ± 0.03
IC50 ([2]; Table 11, pancreatic, read-out: IC50 (μM) BxPC-3 (WT)): > 30 µM
IC50 [3]: > 30 µM
IC50 ([4]; Table 11, pancreatic, read-out: IC50 (μM) MOH (Mut)): > 30 µM
IC50 [5]: > 30 µM
IC50 [6]: > 30 µM
IC50 ([7]; Table 11, lung, read-out: IC50 (μM) NCI H522 (WT)): > 30 µM
IC50 [8]: > 30 µM
IC50 [9]: > 30 µM
IC50 [10]: > 30 µM
IC50 [11]: > 30 µM
IC50 [12]: > 30 µM
IC50 ([13]; Table 11, lung, read-out: IC50 (μM) NCI H23 (Mut)): > 30 µM
IC50 ([14]; Table 11, endometrial, read-out: IC50 (μM) Ishikawa (WT)): > 30 µM
fold increased potency (mGFP-K-RASG12V [15]): 10 fold
capability to kill mutant KRAS expressing cancer cells [16]: no capability to kill
Cytotoxic at 30 μM [17]: did not show any cytotoxic and No

EC50 (mGFP-K-RASG12V [1]; batch 4 compounds, 48 h, title calls it IC50, read-out: EC50): 0.945 µM
Emax (mGFP-K-RASG12V [1]; 48 h): 0.893
IC50 proliferation BxPC-3 (WT) ([2]; 72 h): NE
IC50 proliferation MOH (Mut) ([4]; 72 h): NE
IC50 proliferation HPAC (Mut) [18]: NE
IC50 proliferation NCI-H23 (Mut) ([13]; 72 h): NE
IC50 proliferation KLE (WT) [20]: NE
IC50 proliferation Ishikawa (WT) ([14]; 72 h): NE
Structure (SMILES): CN1CCN(CCN(CC=C(c2ccccc2)c2ccccc2)[C@@H]2C[C@H]2c2ccccc2)CC1 [NY0590, (1R,2S)-N-(3,3-diphenylallyl)-N-(2-(4-methylpiperazin-1-yl)ethyl)-2-phenylcyclopropan-1-amine]
IC50 proliferation NCI H522 (WT) ([7]; 72 h): NE
Potency proliferation H1925 (WT) [19]: NE
Potency proliferation SW1116 (Mut) [21]: NE
Cytotoxic at 30 μM [17]: Yes
